Test results reported in patent publication US20180296447A1, “BIOCIDAL COMPOSITIONS AND RELATED METHODS” (Imerys Filtration Minerals, Inc., priority 2015, published 2018).

Tested on: Streptococcus mutans UA159 (ATCC 700610)
Experiment: Direct bacterial killing experiment, spiral plating viability
Assay type: cell-based
Description: A direct bacterial killing experiment was done using spiral plating to measure the viability of the Streptococcus mutans UA159 (ATCC 700610) (S. mutans). Streptococcus mutans is facultatively anaerobic, gram-positive coccus-shaped bacterium commonly found in the human oral cavity and is a significant contributor to tooth decay.
All of Examples 4-6 were measured blindly without any knowledge of their composition. This was accomplished by pipetting 1 ml of the diluted sample powder particles (100 mg/ml) into 3 ml of Tryptic Soy broth containing 1% sucrose (TSBS) and 20 ul of an overnight culture of S. mutans. The inoculated suspensions were incubated for 24 hours at 37° C. in 5% CO2, diluted 1:10 and 1:1000, and spiral plated onto blood agar plates. The colonies on the plates were counted in a Colony Forming Unit (CFU) after 24 hours of incubation. Regarding controls, 0.12% chlorhexidine (CHX) was used a positive control, and sterile water was used as a negative control.

For `[H]/N=C(\N/C(=N/[H])NCCCCCCNC(=N)NC(=N)Nc1ccc(Cl)cc1)Nc1ccc(Cl)cc1` [CHX control, chlorhexidine], the “Inhibition of S. mutans in the viability assay (in words)” value (24 hours incubation) was “significantly inhibited” and the “Mean (CFU/ml)” value (S. mutans, 1 ml of 100 mg/ml sample powder in 3 ml TSBS, 24 hours at 37° C., 5% CO2, CHX 0.12%) was 1.67 × 10^2 ± 0.047 CFU/ml.
